# Tested on: rat's sciatic nerve
# Assay: Local anesthetic effect after injection near the rat sciatic nerve (von Frey stimulation; Postural Extensor Thrust for motor function)
# Assay type: in vivo
# Details: SD rats, 0.5 mL near sciatic nerve; Postural Extensor Thrust; compounds 20 mmol/mL, levobupivacaine 0.75%, lidocaine 2%
# Experimental: Dosage: for lidocaine group, lidocaine was formulated with distilled water into a solution at the concentration of 2% (74 mmol/L); for levobupivacaine group, levobupivacaine was formulated with distilled water into a solution at the concentration of 0.75% (22 mmol/L); the compound of the present invention was formulated with distilled water into a solution at the concentration of […].
# The injection volume for each rat was 0.5 mL, which was guided by a nerve locator and injected near the rat's sciatic nerve. Using von Frey stimulator, the rats were stimulated the soles of the feet in the injected side, to observe the effect of local anesthesia. Meanwhile, Postural Extensor Thrust (PET) was used to evaluate the motor function of the rat: the rat was lifted vertically and the hindlimb in the injected side pedaled on the platform of the electronic balance. […] When the limb was completely paralyzed, the reading was the limb's own weight, about 20 g. If the measured value was more than half of the difference between the baseline and the limb weight, the motor function was regarded as recovery, and if the value was […], the motor function was regarded as loss.
row,Compound,Duration of motor block [h]
1,CCCCC[N+](CCO)(CCCCCCN1CCCC1C(=O)Nc1c(C)cccc1C)CC(=O)Nc1c(C)cccc1C (stereo not drawn) [Example 59 product],15
2,CCCOCCCC[N+](CCCCCC(=O)O)(CCCSCCCN1CCCCC1C(=O)Nc1c(C)cccc1C)CC(=O)Nc1c(C)cccc1C (stereo not drawn) [Example 29 product],15
3,CCOCC[N+](CCO)(CCCCCCN1CCCC1C(=O)Nc1c(C)cccc1C)CC(=O)Nc1c(C)cccc1C (stereo not drawn) [Example 61 product],11
4,CCCCC[N+](CCCCCCN1CCCCC1C(=O)Nc1c(C)cccc1C)(CCOCC)CC(=O)Nc1c(C)cccc1C (stereo not drawn) [Example 20 product],14
5,Cc1cccc(C)c1NC(=O)C[N+]1(CCCSCCCN2CCCCC2C(=O)Nc2c(C)cccc2C)CC(C)OC(C)C1 (stereo not drawn) [Example 58 product],16
6,Cc1cccc(C)c1NC(=O)C[N+](CCO)(CCCCO)CCCCCCN1CCCC1C(=O)Nc1c(C)cccc1C (stereo not drawn) [Example 60 product],20
7,CCOCCC[N+](CCCCCCN1CCCCC1C(=O)Nc1c(C)cccc1C)(CCCOCC)CC(=O)Nc1c(C)cccc1C.[Br-] (stereo not drawn) [Example 22 product],15
8,Cc1cccc(C)c1NC(=O)C[N+]1(CCCOCCCN2CCCCC2C(=O)Nc2c(C)cccc2C)CC(C)OC(C)C1 (stereo not drawn) [Example 32 product],17
9,CCCCCCCCCC[N+](CO)(CCOCCN1CCCCC1C(=O)Nc1c(C)cccc1C)CC(=O)Nc1c(C)cccc1C (stereo not drawn) [Example 72 product],10
10,CCCCCC[N+](CCCCCC)(CCOCCOCCN1CCCCC1C(=O)Nc1c(C)cc(O)cc1C)CC(=O)Nc1c(C)cc(OC)cc1C (stereo not drawn) [Example 4 product],13
11,CCCCCCCCCC[N+](CCCCCCCCCC)(CCOCCN1CCCCC1C(=O)Nc1c(C)cccc1C)CC(=O)Nc1c(C)cccc1C (stereo not drawn) [Example 2 product],33

# Same assay, conditions: SD rats, 0.5 mL near sciatic nerve; compounds 20 mmol/mL, levobupivacaine 0.75% (22 mmol/L), lidocaine 2% (74 mmol/L)
row,Compound,Local anesthesia onset time [min]
1,CCCCC[N+](CCO)(CCCCCCN1CCCC1C(=O)Nc1c(C)cccc1C)CC(=O)Nc1c(C)cccc1C (stereo not drawn) [Example 59 product],1
2,CCCOCCCC[N+](CCCCCC(=O)O)(CCCSCCCN1CCCCC1C(=O)Nc1c(C)cccc1C)CC(=O)Nc1c(C)cccc1C (stereo not drawn) [Example 29 product],5
3,CCOCC[N+](CCO)(CCCCCCN1CCCC1C(=O)Nc1c(C)cccc1C)CC(=O)Nc1c(C)cccc1C (stereo not drawn) [Example 61 product],3
4,CCCCC[N+](CCCCCCN1CCCCC1C(=O)Nc1c(C)cccc1C)(CCOCC)CC(=O)Nc1c(C)cccc1C (stereo not drawn) [Example 20 product],5
5,Cc1cccc(C)c1NC(=O)C[N+]1(CCCSCCCN2CCCCC2C(=O)Nc2c(C)cccc2C)CC(C)OC(C)C1 (stereo not drawn) [Example 58 product],3
6,Cc1cccc(C)c1NC(=O)C[N+](CCO)(CCCCO)CCCCCCN1CCCC1C(=O)Nc1c(C)cccc1C (stereo not drawn) [Example 60 product],1
7,CCOCCC[N+](CCCCCCN1CCCCC1C(=O)Nc1c(C)cccc1C)(CCCOCC)CC(=O)Nc1c(C)cccc1C.[Br-] (stereo not drawn) [Example 22 product],3
8,Cc1cccc(C)c1NC(=O)C[N+]1(CCCOCCCN2CCCCC2C(=O)Nc2c(C)cccc2C)CC(C)OC(C)C1 (stereo not drawn) [Example 32 product],2
9,CCCCCCCCCC[N+](CO)(CCOCCN1CCCCC1C(=O)Nc1c(C)cccc1C)CC(=O)Nc1c(C)cccc1C (stereo not drawn) [Example 72 product],1
10,CCCCCC[N+](CCCCCC)(CCOCCOCCN1CCCCC1C(=O)Nc1c(C)cc(O)cc1C)CC(=O)Nc1c(C)cc(OC)cc1C (stereo not drawn) [Example 4 product],7
11,CCCCCCCCCC[N+](CCCCCCCCCC)(CCOCCN1CCCCC1C(=O)Nc1c(C)cccc1C)CC(=O)Nc1c(C)cccc1C (stereo not drawn) [Example 2 product],4

# Same assay, conditions: SD rats, 0.5 mL near sciatic nerve; von Frey; compounds 20 mmol/mL, levobupivacaine 0.75%, lidocaine 2%
row,Compound,Duration of sensory block [h]
1,CCCCC[N+](CCO)(CCCCCCN1CCCC1C(=O)Nc1c(C)cccc1C)CC(=O)Nc1c(C)cccc1C (stereo not drawn) [Example 59 product],54
2,CCCOCCCC[N+](CCCCCC(=O)O)(CCCSCCCN1CCCCC1C(=O)Nc1c(C)cccc1C)CC(=O)Nc1c(C)cccc1C (stereo not drawn) [Example 29 product],50
3,CCCCC[N+](CCCCCCN1CCCCC1C(=O)Nc1c(C)cccc1C)(CCOCC)CC(=O)Nc1c(C)cccc1C (stereo not drawn) [Example 20 product],54
4,Cc1cccc(C)c1NC(=O)C[N+]1(CCCSCCCN2CCCCC2C(=O)Nc2c(C)cccc2C)CC(C)OC(C)C1 (stereo not drawn) [Example 58 product],57
5,Cc1cccc(C)c1NC(=O)C[N+](CCO)(CCCCO)CCCCCCN1CCCC1C(=O)Nc1c(C)cccc1C (stereo not drawn) [Example 60 product],54
6,CCOCCC[N+](CCCCCCN1CCCCC1C(=O)Nc1c(C)cccc1C)(CCCOCC)CC(=O)Nc1c(C)cccc1C.[Br-] (stereo not drawn) [Example 22 product],47
7,Cc1cccc(C)c1NC(=O)C[N+]1(CCCOCCCN2CCCCC2C(=O)Nc2c(C)cccc2C)CC(C)OC(C)C1 (stereo not drawn) [Example 32 product],46
8,CCCCCCCCCC[N+](CO)(CCOCCN1CCCCC1C(=O)Nc1c(C)cccc1C)CC(=O)Nc1c(C)cccc1C (stereo not drawn) [Example 72 product],65
9,CCCCCC[N+](CCCCCC)(CCOCCOCCN1CCCCC1C(=O)Nc1c(C)cc(O)cc1C)CC(=O)Nc1c(C)cc(OC)cc1C (stereo not drawn) [Example 4 product],23
10,CCCCCCCCCC[N+](CCCCCCCCCC)(CCOCCN1CCCCC1C(=O)Nc1c(C)cccc1C)CC(=O)Nc1c(C)cccc1C (stereo not drawn) [Example 2 product],44

# Tested on: back skin of SD rat
# Assay: Local anesthetic effect by subcutaneous infiltration (back skin, Von Frey fiber 100 g)
# Assay type: in vivo
# Details: SD rats, 0.5 mL subcutaneous in saline; compounds 6 mmol/L, controls 0.75% (22 mmol/L) and 2% (74 mmol/L)
# Experimental: After the back of SD rat weighing 250-300 g (half female and half male) was shaved and disinfected, a circle with a diameter of about 1.5 cm was drawn on the side of the exposed back, and the circle is divided into 6 equal parts. […] Among the Von Frey fiber yarns, the one with a strength of 100 g was bound to the needle for local skin stimulation. One minute After the drug was injected, the above method was used to stimulate in 6 divisions. […] If back skin contraction was observed, the local anesthetic effect was considered as loss. […] Each compound was tested with 10 rats.
Compound,Duration of local anesthesia (median) [h],Local anesthesia onset time (median) [min]
CCCCC[N+](CCO)(CCCCCCN1CCCC1C(=O)Nc1c(C)cccc1C)CC(=O)Nc1c(C)cccc1C (stereo not drawn) [Example 59 product],72,1
CCCOCCCC[N+](CCCCCC(=O)O)(CCCSCCCN1CCCCC1C(=O)Nc1c(C)cccc1C)CC(=O)Nc1c(C)cccc1C (stereo not drawn) [Example 29 product],73,2
CCOCC[N+](CCO)(CCCCCCN1CCCC1C(=O)Nc1c(C)cccc1C)CC(=O)Nc1c(C)cccc1C (stereo not drawn) [Example 61 product],86,1
CCCCC[N+](CCCCCCN1CCCCC1C(=O)Nc1c(C)cccc1C)(CCOCC)CC(=O)Nc1c(C)cccc1C (stereo not drawn) [Example 20 product],47,3
Cc1cccc(C)c1NC(=O)C[N+]1(CCCSCCCN2CCCCC2C(=O)Nc2c(C)cccc2C)CC(C)OC(C)C1 (stereo not drawn) [Example 58 product],71,2
Cc1cccc(C)c1NC(=O)C[N+](CCO)(CCCCO)CCCCCCN1CCCC1C(=O)Nc1c(C)cccc1C (stereo not drawn) [Example 60 product],66,2
CCOCCC[N+](CCCCCCN1CCCCC1C(=O)Nc1c(C)cccc1C)(CCCOCC)CC(=O)Nc1c(C)cccc1C.[Br-] (stereo not drawn) [Example 22 product],63,2
Cc1cccc(C)c1NC(=O)C[N+]1(CCCOCCCN2CCCCC2C(=O)Nc2c(C)cccc2C)CC(C)OC(C)C1 (stereo not drawn) [Example 32 product],56,2
CCCCCCCCCC[N+](CO)(CCOCCN1CCCCC1C(=O)Nc1c(C)cccc1C)CC(=O)Nc1c(C)cccc1C (stereo not drawn) [Example 72 product],72,1
CCCCCC[N+](CCCCCC)(CCOCCOCCN1CCCCC1C(=O)Nc1c(C)cc(O)cc1C)CC(=O)Nc1c(C)cc(OC)cc1C (stereo not drawn) [Example 4 product],35,1
CCCCCCCCCC[N+](CCCCCCCCCC)(CCOCCN1CCCCC1C(=O)Nc1c(C)cccc1C)CC(=O)Nc1c(C)cccc1C (stereo not drawn) [Example 2 product],44,2

# — patent US20220135526A1, “QUATERNARY AMMONIUM SALT COMPOUND, PREPARATION METHOD THEREFOR AND USE THEREOF” (WEST CHINA HOSPITAL, SICHUAN UNIVERSITY, priority 2019, published 2022)
